# Test results taken from patent publication US20050014152A1, “Drug transporter and use thereof” (priority 2001, published 2005).
# Where a name gives a salt, the structure may show the parent alone.
# B1: ABCA8 (Homo sapiens) (protein)
# chain: MRKRKISVCQQTWALLCKNFLKKWRMKRESLMEWLNSLLLLLCLYIYPHSHQVNDFSSLLTMDLGRVDTFNESRFSVVYTPVTNTTQQIMNKVASTPFLAGKEVLGLPDEESIKEFTANYPEEIVRVTFTNTYSYHLKFLLGHGMPAKKEHKDHTAHCYETNEDVYCEVSVFWKEGFVALQAAINAAIIEITTNHSVMEELMSVTGKNMKMHSFIGQSGVITDLYLFSCIISFSSFIYYASVNVTRERKRMKALMTMMGLRDSAFWLSWGLLYAGFIFIMALFLALVIRSTQFIILSGFMVVFSLFLLYGLSLVALAFLMSILVKKSFLTGLVVFLLTVFWGCLGFTSLYRHLPASLEWILSLLSPFAFMLGMAQLLHLDYDLNSNAFPHPSDGSNLIVATNFMLAFDTCLYLALAIYFEKILPNEYGHRRPPLFFLKSSFWSQTQKTDHVALEDEMDADPSFHDSFEQAPPEFQGKEAIRIRNVTKEYKGKPDKIEALKDLVFDIYEGQITAILGHSGAGKSTLLNILSGLSVPTKGSVTIYNNKLSEMADLENLSKLTGVCPQSNVQFDFLTVRENLRLFAKIKGILPQEVDKEIFLLDEPTAGLDPFSRHQVWNLLKERKTDRVILFSTQFMDEADILADRKVFLSQGKLKCAGSSLFLKKKWGIGYHLSLQLNEICVEENITSLVKQHIPDAKLSAKSEGKLIYTLPLERTNKFPELYKDLDSYPDLGIENYGVSMTTLNEVFLKLEGKSTINESDIAILGEVQAEKADDTERLVEMEQVLSSLNKMRKTIGGVALWRQQICAIARVRLLKLKHERKALLALLLILMAGFCPLLVEYTMVKIYQNSYTWELSPHLYFLAPGQQPHDPLTQLLIINKTGASIDDFIQSVEHQNIALEVDAFGTRNGTDDPSYNGAITVCCNEKNYSFSLACNAKRLNCFPVLMDIVSNGLLGMVKPSVHIRTERSTFLENGQDNPIGFLAYIMFWLVLTSSCPPYIAMSSIDDYKNRARSQLRISGLSPSAYWFGQALVDVSLYFLVFVFIYLMSYISNFEDMLLTIIHIIQIPCAVGYSFSLIFMTYVISFIFRKGRKNSGIWSFCFYVVTVFSVAGFAFSIFESDIPFIFTFLIPPATMIGCLFLSSHLLFSSLFSEERMDVQPFLVFLIPFLHFIIFLFTLRCLEWKFGKKSMRKDPFFRISPRSSDVCQNPEEPEGEDEDVQMERVRTANALNSTNFDEKPVIIASCLRKEYAGKRKGCFSKRKNKIATRNVSFCVRKGEVLGLLGHNGAGKSTSIKVITGDTKPTAGQVLLKGSGGGDALEFLGYCPQENALWPNLTVRQHLEVYAAVKGLRKGDAEVAITRLVDALKLQDQLKSPVKTLSEGIKRKLCFVLSILGNPSVVLLDEPSTGMDPEGQQQMWQAIRATFRNTERGALLTTHYMAEAEAVCDRVAIMVSGRLRCIGSIQHLKSKFGKDYLLEMKVKNLAQVEPLHAEILRLFPQAARQERYSSLMVYKLPVEDVQPLAQAFFKLEKVKQSFDLEEYSLSQSTLEQVFLELSKEQELGDFEEDFDPSVKWKLLPQEEP
# notes: expressed in transfected cells; host or cells: Xenopus oocytes (stage V) microinjected with capped cRNA
# Key:
# [1] = biological target: T1, ABCA8 (Homo sapiens, UniProt O94911); assay: uptake of various isotope-labeled compounds into oocytes; type: cell-based
# T1 construct: expressed in transfected cells; host or cells: Xenopus oocytes (stage V) microinjected with capped cRNA
# Experimental: (§1) The cultured oocytes (n=10 to 20) were mixed with 2 to 3 ml of a medium and an isotope-labeled compound, and the mixture was then placed in a small incubator. Small amounts of the cells were serially sampled. Each oocyte was washed with a fresh MBS 3 times, and it was then dissolved in a 10% SDS solution at room temperature for 30 minutes. As such an isotope-labeled compound, ^14C-estradiol-β-glucuronide that is a model probe for MRP (multidrug resistance associated protein), a member of an ABC transporter family, was used. Subsequently, a scintillation cocktail (ACS2, manufactured by Amersham) was added thereto, and then, a radioactivity taken into the oocyte was measured with a liquid scintillation counter (LSC-3500, manufactured by Aloka).
# Subsequently, the uptake of various isotope-labeled compounds into cells was measured. Measurement was carried out in the same manner as in Example 1 with the exception that the following compounds were used. • LTC4 (leukotriene C4): a substrate for MRP (an additive amount: 20 μM) • Taurocholic acid: a substrate for OAT (an additive amount: 100 μM) • TEA (tetraethylammonium): a substrate for OCT (an additive amount: 10 nM) • Digoxin: a substrate for MDR (an additive amount: 100 nM) • Doxorubicin: a substrate for MDR (an additive amount: 100 μg/ml) • PAH (para-aminohippuric acid): a substrate for MRP and OAT (an additive amount: 1 mM)
# [2] = biological target: T1, ABCA8; assay: inhibition test of the uptake of 14C-estradiol-β-glucuronide into oocytes by various compounds; type: cell-based; settings: for uptake of 14C-estradiol-β-glucuronide decreased to: inhibitor additive amount 10 μM
# Experimental: An inhibition test was carried out on the protein encoded by a DNA comprising the nucleotide sequence represented by SEQ ID NO: 2. In the test, in the above described determination of the uptake of ^14C-estradiol-β-glucuronide, various types of compounds were previously added to a reaction medium, so as to examine whether or not the uptake of ^14C-estradiol-β-glucuronide was inhibited by the compounds.
# [3] = biological target: T1, ABCA8; assay: uptake of 3H-indoxyl sulfate into oocytes and its inhibition by probenecid; type: cell-based
# Experimental: as §1
# (§2) The same procedure was carried out as in Example 1 with the exception that ^3H-labeled indoxyl sulfate, one of the urinary toxins, was isotope-labeled with ^3H was used as a compound in a concentration of 2 μM. At the same time, a system to which probenecid was added in a concentration of 1 mM, and a system to which water was added instead of cRNA, were also subjected to the same test.
# [4] = biological target: T1, ABCA8; assay: ATP dependency of the uptake of 14C-estradiol-β-glucuronide into oocytes; type: cell-based; settings: ATP added, up to 5 mM
# Experimental: A protein encoded by a DNA comprising the nucleotide sequence represented by SEQ ID NO: 2has an ATP-binding cassette. Thus, a test was made to see ATP dependency of the uptake of ^14C-estradiol-β-glucuronide. In the test, ATP was added in the above determination of the uptake of ^14C-estradiol-[…], and the same operation was then carried out to determine the uptake of ^14C-estradiol-β-glucuronide.
# [5] = biological target: T1, ABCA8; assay: uptake of 14C-estradiol-β-glucuronide into Xenopus oocytes injected with cRNA of the drug transporter; type: cell-based
# Experimental: A mature female Xenopus purchased from Hamamatsu Animal was bred under normal conditions. Thereafter, stage V oocytes were selected therefrom, and the cells were incubated in a modified Barth's solution (MBS) containing 88 mM NaCl, 1 mM KCl, 2.4 mM NaHCO3, 15 mM Tris-Cl, 0.3 mM CaNO3, 0.82 mM MgSO4, 0.41 mM CaCl2, 10 μg/ml penicillin and 10 μg/ml streptomycin. Thereafter, cRNA was prepared by a known method using a DNA having the nucleotide sequence represented by SEQ ID NO: 1, and an aqueous solution containing the obtained cRNA was injected into the mature Xenopus oocytes by microinjection. For such microinjection, cRNA whose 5′-terminus was capped or 50 nl of water was injected into the oocytes in vitro, using an automatic injector (IM200J, Narishige, Japan). The thus injected oocytes were cultured at 17° C. for 3 days in MBS, while exchanging the medium with a new one every day. 3 days after the culture, the oocytes expressed a drug transporter.
# The used cRNA was obtained by […] of cDNA from Kazusa DNA Research Institute, which has been cloned as one of full-length cDNAs obtained from human brain and has been deposited with NCBI (National Center for Biotechnology Information, USA) under accession No. AB020629.
# as §1
# In this case, the concentration of ^14C-estradiol-β-glucuronide in the medium was 37 nM. […]
# [6] = substrate: O=S(=O)(O)Oc1c[nH]c2ccccc12; assay: uptake of 3H-indoxyl sulfate into oocytes and its inhibition by probenecid; type: cell-based, human; settings: other: cRNA-injected oocytes
# Experimental: as §1, §2
molecule,measurement,setting,value
"CCCCC/C=C\C\C=C/C=C/C=C/[C@@H](SC[C@H](NC(=O)CC[C@H](N)C(=O)O)C(=O)NCC(=O)O)[C@@H](O)CCCC(=O)O [LTC-4, leukotriene C4]",uptake of isotope-labeled compound into oocytes,[1]; additive amount 20 μM,taken into oocytes
CN(C)C(=O)CCSC(SCCC(=O)O)c1cccc(/C=C/c2ccc3ccc(Cl)cc3n2)c1 (centres unmarked) [MK-571],uptake of 14C-estradiol-β-glucuronide decreased to,[2],approximately 30%
O=C(C(c1ccccc1)c1ccccc1)N1CCN(CC(O)COc2cccc3ncccc23)CC1 (centres unmarked) [MS-209],uptake of 14C-estradiol-β-glucuronide decreased to,[2],approximately 30%
"Nc1ccc(C(=O)NCC(=O)O)cc1 [PAH, para-aminohippuric acid]",uptake of isotope-labeled compound into oocytes,[1]; additive amount 1 mM,taken into oocytes
"CC[N+](CC)(CC)CC [TEA, tetraethylammonium]",uptake of isotope-labeled compound into oocytes,[1]; additive amount 10 nM,does not have a function to transport
"O=S(=O)(O)Oc1c[nH]c2ccccc12 [^3H-indoxyl sulfate, indoxyl sulfate]",Vmax of uptake,[3]; cRNA-injected oocytes,5.5 pmol/hr/egg
same,"uptake of 3H-indoxyl sulfate into oocytes, time course","[3]; cRNA-injected oocytes, 2 μM",linearly increased with time
"CN/C(=N/CCSCc1nc[nH]c1C)NC#N [cimetidine, Cimetidine]",inhibitory effect on uptake of 14C-estradiol-β-glucuronide,[2]; additive amount 1 mM,no inhibitory effect
"C[C@H]1O[C@@H](O[C@H]2[C@@H](O)C[C@H](O[C@H]3[C@@H](O)C[C@H](O[C@H]4CC[C@@]5(C)[C@H](CC[C@@H]6[C@@H]5C[C@@H](O)[C@]5(C)[C@@H](C7=CC(=O)OC7)CC[C@]65O)C4)O[C@@H]3C)O[C@@H]2C)C[C@H](O)[C@@H]1O [digoxin, Digoxin]",uptake of isotope-labeled compound into oocytes,[1]; additive amount 100 nM,excreted therefrom (or its original uptake was inhibited)
same,inhibitory effect on uptake of 14C-estradiol-β-glucuronide,[2]; additive amount 0.25 mM,small extent of inhibitory effect
"COc1cccc2c1C(=O)c1c(O)c3c(c(O)c1C2=O)C[C@@](O)(C(=O)CO)C[C@@H]3O[C@H]1C[C@H](N)[C@H](O)[C@H](C)O1 [doxorubicin, Doxorubicin]",uptake of isotope-labeled compound into oocytes,[1]; additive amount 100 μg/ml,does not have a function to transport
"C[C@@H]1Cc2c(Cl)cc(C(=O)N[C@@H](Cc3ccccc3)C(=O)O)c(O)c2C(=O)O1 [ochratoxin A, Ochratoxin A]",inhibitory effect on uptake of 14C-estradiol-β-glucuronide,[2]; additive amount 50 μM,inhibitory effect
"CCCN(CCC)S(=O)(=O)c1ccc(C(=O)O)cc1 [probenecid, Probenecid]",inhibitory effect on uptake of 14C-estradiol-β-glucuronide,[2]; additive amount 1 mM,small extent of inhibitory effect
same,effect on uptake of 3H-indoxyl sulfate into the cells,"[3]; probenecid 1 mM, 3H-indoxyl sulfate 2 μM",decreased
"C[C@H](CCC(=O)NCCS(=O)(=O)O)[C@H]1CC[C@H]2[C@@H]3[C@H](O)C[C@@H]4C[C@H](O)CC[C@]4(C)[C@H]3C[C@H](O)[C@]12C [taurocholic acid, Taurocholic acid]",uptake of isotope-labeled compound into oocytes,[1]; additive amount 100 μM,taken into oocytes
^14C-estradiol-β-glucuronide,influence of ATP concentration on uptake into the cells,[4],increased with the increase of ATP concentration
same,intake of 14C-estradiol-β-glucuronide into the cells,"[5]; 37 nM in the medium, about 60 minutes",138±5.5 fmol/hr/egg
same,Km,[5]; Michaelis-Menten,30.4 µM
same,Vmax of uptake,[5]; Michaelis-Menten,8.37 pmol/hr/egg
B1,Km,[6],25.5 µM
